# From patent US4474775A, “Pyrazol-4-yl phosphates and insecticidal and acaricidal use” (priority 1979, dated 1984)
# Columns and labels:
# [1] = Oral acute toxicity in mice (Toxicological Test); conditions: mouse, in vivo, five-week aged ddY-SLC strained male mice
# Text: Below tabulated are the oral acute toxicity values obtained with five-week aged, ddY-SLC strained male mice: […]
# [2] = system: Tetranychus urticae; experiment: Effectiveness against Tetranychus urticae (Testing Example 4); assay type: in vivo; conditions: decrease rate grade, 500 ppm spray on kidney bean plant; for Efficacy grading, 2nd day: 2nd day after spraying; for Efficacy grading, 7th day: 7th day after spraying
# Description: Testing Example 4: Effectiveness against Tetranychus urticae
# A test compound was processed into an emulsifiable concentrate in accordance with the formulation of Example 6, and diluted with water (with Dyne®, spreading agent, as diluted 3000-fold) to prepare a 500 ppm aqueous solution. Ten female adults of Tetranychus urticae) were infected on the seedling of a kidney bean plant water-cultured in a polyethylene cup, and the cups were placed in a glass chamber (28° C.) for 24 hours, followed by spraying 20 ml of the aqueous solution on the kidney bean plant. After the sprayed cup was placed again in the glass chamber, the number of the adults and larvae living on the leaves was counted on the 2nd and 7th days after spraying. The test was repeated twice, and the test results are tabulated in Table 5 in terms of the efficacy grading as determined by calculating a decrease rate by the following equation:
# Decrease rate (%)=[(number of mites tested-number of larvae living on the day of inspection)/(number of mites tested)]×100
# [3] = system: Spodoptera litura; experiment: Effectiveness against Spodoptera litura (Testing Example 2); assay type: in vivo; conditions: second-instar larvae, 500 ppm spray on soybean, 28° C., 24 hours
# Description: Testing Example 2: Effectiveness against Spodoptera litura
# Twenty milliliters of a 500 ppm, water-diluted solution (with Dyne® Takeda Chem. Ind. Ltd., spreading agent, as diluted 3000-fold) of the test compound (the emulsifiable concentrate of Example 6) was sprayed on grown seedlings (10 days after germination) of soybean plant water-cultured in a polyethylene cup by the use of a spray gun (nozzle pressure of 1 kg/cm^2 gauge) in a spraying chamber. 2 hours after spraying, two main leaves of soybean plant were cut off and were placed into two cups (6 cm in diameter and 4 cm in depth), respectively, and ten second-instar larvae of Spodoptera litura were liberated. The cups were left in the room (28° C.) for 24 hours, and the dead larvae were counted.
# [4] = system: Laodelphax striatellus; experiment: Effectiveness against Laodelphax striatellus, adults, dust on paddy-rice plant (Testing Example 1 (b)); assay type: in vivo; conditions: small brown planthopper, adults on dusted rice, 24 h
# Description: (§1) Testing Example 1: Effectiveness against Laodelphax striatellus
# (b) A test compound was processed into a dust preparation in accordance with the formulation of Example 8, and […] of the preparation was dusted on the potted paddy-rice plant (1/5,000 a) by the Berger Duster method. After dusting, leaves (15 cm long) of the paddy rice were cut off and were placed in a test tube containing 1 ml of water in the bottom, and ten adults of Laodelphax striatellus were released therein. After allowing the test tube to stand in the room (28° C.) for 24 hours, the dead insects were counted.
# [5] = system: Laodelphax striatellus; experiment: Effectiveness against Laodelphax striatellus, third-instar larvae, root dip (Testing Example 1 (a)); assay type: in vivo; conditions: 40 ppm emulsifiable concentrate dilution, root dip 2 hours, 28° C., 24 hours, read-out: Mortality (I)
# Description: as §1
# (a) A test compound was processed into an emulsifiable concentrate in accordance with the formulation of Example 6, followed by diluting with water to prepare a treating solution of a 40 ppm concentration. 2.5 ml of the treating solution was placed into a test tube (with 1.7 cm of diameter, 4 cm deep), in which three seedlings of a paddy-rice plant (on the 7th day after germination) were allowed to stand so their root portions were dipped into the solution for 2 hours. The seedlings were then transferred into a test tube having 1 ml water placed in the bottom, and ten third-instar larvae of Laodelphax striatellus were released. After allowing the test tube to stand in the room (28° C.) for 24 hours, the dead larvae were counted. The test is repeated twice, and the test results are tabulated, in terms of mortality, in Table 2 (I).
SMILES,LD50 [1] [mg/kg],"Efficacy grading, 2nd day [2]","Efficacy grading, 7th day [2]",mortality at 500 ppm [3] [%],Mortality (II) [4] [%],mortality at 40 µg/mL [5] [%]
"CCCSP(=S)(OCC)Oc1cnn(-c2ccccc2)c1 (stereo not shown) [Compound No. 5, O-ethyl-O-(1-phenylpyrazol-4-yl)-S-n-propyl phosphorothiolothionate]",> 300,3 (Not less than 90),3 (Not less than 90),100,,
CCCSP(=O)(OCC)Oc1cnn(-c2ccc(Br)cc2)c1 (stereo not shown) [Compound No. 9],> 300,3 (Not less than 90),3 (Not less than 90),100,75,100
"CCCSP(=O)(OCC)Oc1cnn(-c2ccc(Cl)cc2)c1 (stereo not shown) [Compound No. 16, O-ethyl-O-[1-(4-chlorophenyl)pyrazol-4-yl]-S-n-propyl phosphorothiolate]",> 300,3 (Not less than 90),3 (Not less than 90),100,75,97
CCCSP(=S)(OCC)Oc1cnn(-c2ccc(Cl)cc2)c1 (stereo not shown) [Compound No. 17],> 300,3 (Not less than 90),3 (Not less than 90),100,35,100
CCCOP(=S)(OCC)Oc1cn(-c2ccccc2)nc1C(=O)OCC (stereo not shown) [compound 6],> 300,,,,70,97
CCCSP(=O)(OCC)Oc1cn(-c2ccccc2)nc1C(=O)OCC (stereo not shown) [compound 7],> 300,3 (Not less than 90),3 (Not less than 90),100,,
CCCSP(=S)(OCC)Oc1cn(-c2ccccc2)nc1C(=O)OCC (stereo not shown) [compound 8],> 300,3 (Not less than 90),0 (Not more than 20),100,,
CCCSP(=S)(OCC)Oc1cnn(-c2ccc(Br)cc2)c1 (stereo not shown) [compound 10],> 300,3 (Not less than 90),3 (Not less than 90),100,,
CCOP(=S)(OCC)Oc1cnn(-c2ccccc2Cl)c1 [compound 11],> 300,3 (Not less than 90),0 (Not more than 20),,,
CCCSP(=O)(OCC)Oc1cnn(-c2cccc(Cl)c2)c1 (stereo not shown) [compound 13],> 300,3 (Not less than 90),3 (Not less than 90),100,90,100
CCCSP(=S)(OCC)Oc1cnn(-c2cccc(Cl)c2)c1 (stereo not shown) [compound 14],> 300,3 (Not less than 90),0 (Not more than 20),100,,
CCOP(=S)(OCC)Oc1cnn(-c2ccc(Cl)cc2)c1 [compound 15],> 300,3 (Not less than 90),0 (Not more than 20),,,
CCCSP(=O)(OCC)Oc1cnn(-c2ccc(F)cc2)c1 (stereo not shown) [compound 18],> 300,3 (Not less than 90),3 (Not less than 90),100,100,100
CCCSP(=S)(OCC)Oc1cnn(-c2ccc(F)cc2)c1 (stereo not shown) [compound 19],> 300,3 (Not less than 90),3 (Not less than 90),100,,
CCCSP(=O)(OCC)Oc1cnn(-c2ccc(I)cc2)c1 (stereo not shown) [compound 20],> 300,3 (Not less than 90),3 (Not less than 90),100,65,100
CCOP(=S)(OCC)Oc1cnn(-c2ccccc2C)c1 [compound 21],> 300,3 (Not less than 90),0 (Not more than 20),,,

SMILES,LD50 [1] [mg/kg],"Efficacy grading, 2nd day [2]","Efficacy grading, 7th day [2]",mortality at 500 ppm [3] [%],Mortality (II) [4] [%],mortality at 40 µg/mL [5] [%]
CCCSP(=O)(OCC)Oc1cnn(-c2ccccc2C)c1 (stereo not shown) [compound 22],~300,3 (Not less than 90),3 (Not less than 90),100,63,85
CCCSP(=O)(OCC)Oc1cnn(-c2ccc(C)cc2)c1 (stereo not shown) [compound 23],50 to 300,3 (Not less than 90),3 (Not less than 90),100,,
CCCSP(=O)(OCC)Oc1cnn(-c2ccc(CCC)cc2)c1 (stereo not shown) [compound 24],> 300,3 (Not less than 90),3 (Not less than 90),100,50,85
CCCSP(=O)(OCC)Oc1cnn(-c2ccc(SC)cc2)c1 (stereo not shown) [compound 26],> 300,,,100,,
CCCSP(=O)(OCC)Oc1cnn(-c2cccc(C(F)(F)F)c2)c1 (stereo not shown) [compound 27],50 to 300,,,100,,
CCCSP(=S)(OCC)Oc1cnn(-c2cccc(C(F)(F)F)c2)c1 (stereo not shown) [compound 28],> 300,,,100,,
CCCSP(=S)(OCC)Oc1cnn(-c2ccc(Cl)cc2Cl)c1 (stereo not shown) [compound 30],> 300,3 (Not less than 90),3 (Not less than 90),100,,
CCCSP(=S)(OCC)Oc1cnn(-c2ccc(Cl)c(Cl)c2)c1 (stereo not shown) [compound 32],> 300,3 (Not less than 90),3 (Not less than 90),100,,
CCCSP(=O)(OCC)Oc1cnn(-c2c(C)cccc2C)c1 (stereo not shown) [compound 36],> 300,3 (Not less than 90),3 (Not less than 90),100,,
CCCSP(=O)(OCC)Oc1cnn(-c2ccc(Cl)cc2F)c1 (stereo not shown) [compound 37],> 300,3 (Not less than 90),3 (Not less than 90),100,90,100
CCCSP(=O)(OCC)Oc1cnn(-c2ccc(Cl)cc2C)c1 (stereo not shown) [compound 38],> 300,3 (Not less than 90),3 (Not less than 90),100,,
CCCSP(=O)(OCC)Oc1cnn(-c2cc([N+](=O)[O-])ccc2C)c1 (stereo not shown) [compound 39],> 300,,,100,,
CCCSP(=S)(OCC)Oc1cnn(-c2cc([N+](=O)[O-])ccc2C)c1 (stereo not shown) [compound 40],> 300,,,100,,
CCCSP(=O)(OCC)Oc1cnn(-c2ccc3c(c2)OCO3)c1 (stereo not shown) [compound 41],50 to 300,3 (Not less than 90),3 (Not less than 90),100,,
CCCSP(=O)(OCC)Oc1cnn(-c2cc(Cl)c(Cl)cc2Cl)c1 (stereo not shown) [compound 42],> 300,3 (Not less than 90),3 (Not less than 90),100,40,100
CCCSP(=S)(OCC)Oc1cnn(-c2cc(Cl)c(Cl)cc2Cl)c1 (stereo not shown) [compound 43],> 300,3 (Not less than 90),3 (Not less than 90),100,40,85
